Data reported in PubChem BioAssay (NCI).
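Growth conditions: 96-well plates. Treatment: test compound, 48 hours, 5 concentrations. Analysis: linear interpolation between bracketing concentrations; unreached endpoints set to highest concentration. Here, GI50 denotes the concentration required for 50% inhibition of growth. At the TGI there is no net growth.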

Experiments:
Experiment in all cases: NCI tumour cell line growth inhibition, 48 h
SF-268 CNS = system: SF-268 CNS
SN12C renal = system: SN12C renal
UACC-257 melanoma = system: UACC-257 melanoma
CAKI-1 renal = system: CAKI-1 renal
HL-60(TB) leukemia = system: HL-60(TB) leukemia
NCI-H23 lung = system: NCI-H23 lung
NCI-H522 lung = system: NCI-H522 lung
TK-10 renal = system: TK-10 renal
HOP-62 NSCLC = system: HOP-62 NSCLC
RXF 393 renal = system: RXF 393 renal
SK-MEL-28 melanoma = system: SK-MEL-28 melanoma
RPMI-8226 leukemia = system: RPMI-8226 leukemia
OVCAR-8 ovarian = system: OVCAR-8 ovarian
ACHN renal = system: ACHN renal
SF-539 CNS = system: SF-539 CNS
MDA-MB-435 = system: MDA-MB-435
HCT-15 colon = system: HCT-15 colon
EKVX NSCLC = system: EKVX NSCLC
SK-MEL-5 melanoma = system: SK-MEL-5 melanoma
CCRF-CEM leukemia = system: CCRF-CEM leukemia
OVCAR-3 ovarian = system: OVCAR-3 ovarian
BT-549 breast = system: BT-549 breast
KM12 colon = system: KM12 colon
A549 NSCLC = system: A549 NSCLC
SNB-19 CNS = system: SNB-19 CNS
OVCAR-4 ovarian = system: OVCAR-4 ovarian
MALME-3M melanoma = system: MALME-3M melanoma
HS 578T breast = system: HS 578T breast
HCT-116 colon = system: HCT-116 colon

C=CCn1c(=O)c2cnc(Nc3ccc(N4CCN(C)CC4)cc3)nc2n1-c1ccc2c(n1)[C@@](O)(CC)CC2
GI50 (SF-268 CNS): 2.07 µM | TGI (SF-268 CNS): > 63.5 µM | GI50 (SN12C renal): 0.507 µM | TGI (SN12C renal): > 55.7 µM | GI50 (UACC-257 melanoma): 1.75 µM | TGI (UACC-257 melanoma): 18.1 µM | GI50 (CAKI-1 renal): 0.113 µM | TGI (CAKI-1 renal): 20.5 µM | GI50 (HL-60(TB) leukemia): 0.189 µM | TGI (HL-60(TB) leukemia): 1.3 µM | GI50 (NCI-H23 lung): 0.25 µM | TGI (NCI-H23 lung): 1.42 µM | GI50 (NCI-H522 lung): 0.221 µM | TGI (NCI-H522 lung): 0.888 µM | GI50 (TK-10 renal): 1.41 µM | TGI (TK-10 renal): 49.2 µM | GI50 (HOP-62 NSCLC): 1.29 µM | TGI (HOP-62 NSCLC): 13.8 µM | GI50 (RXF 393 renal): 0.131 µM | TGI (RXF 393 renal): 0.686 µM | GI50 (SK-MEL-28 melanoma): 3.68 µM | TGI (SK-MEL-28 melanoma): 21.6 µM | GI50 (RPMI-8226 leukemia): 1.74 µM | TGI (RPMI-8226 leukemia): 14.5 µM | GI50 (OVCAR-8 ovarian): 0.573 µM | TGI (OVCAR-8 ovarian): 5.62 µM | GI50 (ACHN renal): 0.161 µM | TGI (ACHN renal): 36.8 µM | GI50 (SF-539 CNS): 0.175 µM | TGI (SF-539 CNS): 0.68 µM | GI50 (MDA-MB-435): 0.226 µM | TGI (MDA-MB-435): 0.795 µM | GI50 (HCT-15 colon): 0.949 µM | TGI (HCT-15 colon): 13.8 µM | GI50 (EKVX NSCLC): 1.12 µM | TGI (EKVX NSCLC): 22.5 µM | GI50 (SK-MEL-5 melanoma): 0.3 µM | TGI (SK-MEL-5 melanoma): 1.27 µM | GI50 (CCRF-CEM leukemia): 0.2 µM | TGI (CCRF-CEM leukemia): 1.81 µM | GI50 (OVCAR-3 ovarian): 0.333 µM | TGI (OVCAR-3 ovarian): 2.86 µM | GI50 (BT-549 breast): 0.287 µM | TGI (BT-549 breast): 3.46 µM | GI50 (KM12 colon): 0.391 µM | TGI (KM12 colon): 3.82 µM | GI50 (A549 NSCLC): 2 µM | TGI (A549 NSCLC): 35.8 µM | GI50 (SNB-19 CNS): 1.85 µM | TGI (SNB-19 CNS): > 100 µM | GI50 (OVCAR-4 ovarian): 1.89 µM | TGI (OVCAR-4 ovarian): > 39.9 µM | GI50 (MALME-3M melanoma): 0.576 µM | TGI (MALME-3M melanoma): 12 µM | GI50 (HS 578T breast): 0.755 µM | TGI (HS 578T breast): 12.4 µM | GI50 (HCT-116 colon): 0.415 µM | TGI (HCT-116 colon): 16 µM
